From EP4438030A1, “TERNARY ANTI-SPOT COMBINATION TO LIGHTEN SKIN” (E Grau Active Cosmetics, S.L.U., priority 2023, dated 2024)

System: Normal human epidermal melanocytes
Settings: melanocytes irradiated with ultraviolet light (2.5 J/cm2), 96 hours; mixture 0.0003% hydroxytyrosol, 0.00001% maslinic acid, 0.001% vitamin C (w/w); hydroquinone 10-8% (w/w)
Procedure: Normal human epidermal melanocytes were cultured in 48-well plates at a density of 2×10^4 cells/well overnight in a CO2 incubator at 37°C in the culture medium called Melanocyte Growth Medium (PromoCell, R.F.A.). The culture medium was then removed and replaced with fresh medium, and the cells were cultured for 96 hours in the presence of a mixture containing 0.0003% (w/w) of hydroxytyrosol, 0.00001% (w/w) of maslinic acid and 0.001% (w/w) of vitamin C. […] To mimic exposure to sunlight, the cells were irradiated with ultraviolet light for the last 48 hours in 4 cycles lasting 15 minutes. Irradiation measurements indicated a total dose of 2.5 J/cm2. Melanin was extracted by adding 1 M sodium hydroxide and incubating at 60°C for 1 h.
In parallel, a cell viability assay was carried out using 3-(4,5-dimethylthiazol-2-yl)-2,5-diphenyltetrazolium bromide dye (MTT Assay) to normalise melanin values to cell levels and thus correct possible interferences due to small variations in the number of cells in each well.

`Oc1ccc(O)cc1` [hydroquinone] was tested, and the “reduction of melanin production” value was 42%.
